Test results: DBAASP
In brackets after ≈: the same amount, converted by molar mass. Several values for one entry are separate records, joined by “and”; a condition that tells them apart may be missing. Identical values can stand only once. Values belong to the compound of their own block, whether it stands above or below them.

What was measured:
Assay in all cases: ≥ marks a high value that may be exact or a test limit, other limits are often not marked, values filed in µg/mL are converted to µM
[1] = system: Staphylococcus aureus USA 300
[2] = system: Pseudomonas aeruginosa E411-17
[3] = system: Enterococcus faecium V284-17
[4] = system: Staphylococcus aureus UAMS-1
[5] = system: Klebsiella pneumoniae E406-17
[6] = system: Escherichia coli K-12
[7] = system: Escherichia coli CGMCC 1.8732
[8] = system: Escherichia coli E423-17
[9] = system: Enterococcus faecium ATCC 51559
[10] = system: Staphylococcus epidermidis CGMCC 1.4260
[11] = system: Staphylococcus aureus CGMCC 1.8721
[12] = system: Acinetobacter baumannii B28-16
[13] = system: Klebsiella pneumoniae ATCC 13883
[14] = system: Klebsiella pneumoniae CGMCC 1.1736
[15] = system: Staphylococcus epidermidis 1457
[16] = system: Pseudomonas aeruginosa CGMCC 1.2421
[17] = system: Pseudomonas aeruginosa PAO1
[18] = system: Escherichia coli ATCC 25922
[19] = system: Bacillus subtilis CICC 10034
[20] = system: Staphylococcus pseudintermedius
[21] = system: Staphylococcus aureus CICC 10384
[22] = system: Staphylococcus simulans
[23] = system: Staphylococcus sciuri
[24] = system: Enterobacter cloacae CICC 21539
[25] = system: Trichophyton mentagrophytes
[26] = system: Saccharomyces cerevisiae CICC 1002
[27] = system: Staphylococcus pseudintermedius MW767056
[28] = system: Microsporum canis
[29] = system: Serratia marcescens ATCC 4112
[30] = system: Escherichia coli CICC 10293
[31] = system: Pseudomonas aeruginosa CICC 21636
[32] = system: Aspergillus niger CICC 2124
[33] = system: Listeria innocua CICC 10417
[34] = system: Candida albicans CICC 1965
[35] = system: Microsporum canis MW768151
[36] = system: Salmonella enterica subsp. enterica serovar Paratyphi B CICC 10437
[37] = system: Proteus mirabilis
[38] = system: Staphylococcus haemolyticus
[39] = system: Staphylococcus aureus CICC 10306
[40] = system: Staphylococcus cohnii MW767053
[41] = system: Escherichia coli
[42] = system: Acinetobacter baumannii Q13-0717
[43] = system: Pseudomonas aeruginosa Q14-0208
[44] = system: Staphylococcus aureus NCTC 12493
[45] = system: Campylobacter jejuni NCTC 11351
[46] = system: Pseudomonas aeruginosa ATCC 27853
[47] = system: Pseudomonas aeruginosa
[48] = system: Klebsiella pneumoniae ATCC 700603
[49] = system: Klebsiella pneumoniae Q14-0095
[50] = system: Staphylococcus aureus Q14-0320
[51] = system: Acinetobacter baumannii Q12-0809
[52] = system: Klebsiella pneumoniae NCTC 13442
[53] = system: Staphylococcus aureus ATCC 29213
[54] = system: Streptococcus mutans GS-5
[55] = system: Streptococcus mutans UA159
[56] = system: Streptococcus sanguinis ATCC 49295
[57] = system: Streptococcus gordonii ATCC 10558

MIC [1]: 7.5 µM and 3.1 µM and 7 µM | MIC [2]: 16 µM (≈ 33.6 µg/mL) | MIC [3]: 2 µM (≈ 4.2 µg/mL) | MIC [4]: 7 µM and 3.1 µM | MIC [5]: ≥ 32 µM | MIC [6]: 7.5 µM and 14 µM | MIC [7]: 6.25 µM (≈ 13.1 µg/mL) | MIC [8]: 16 µM (≈ 33.6 µg/mL) | MIC [9]: 6.25 µM (≈ 13.1 µg/mL) | MIC [10]: 3.12 µM (≈ 6.57 µg/mL) | MIC [11]: 6.25 µM (≈ 13.1 µg/mL) | MIC [12]: 1.6 µM and 4 µM | MIC [13]: 3.1 µM (≈ 6.51 µg/mL) | MIC [14]: 6.25 µM (≈ 13.1 µg/mL) | MIC [15]: 1.6 µM (≈ 3.36 µg/mL) | MIC [16]: 6.25 µM (≈ 13.1 µg/mL) | MIC [17]: 25 µM (≈ 52.5 µg/mL) | MIC [18]: 4.4 µM (≈ 9.25 µg/mL)
SMILES: CC[C@H](C)[C@H](NC(=O)[C@H](CCCNC(=N)N)NC(=O)[C@H](CCC(N)=O)NC(=O)[C@@H](NC(=O)[C@@H](NC(=O)[C@H](CCCNC(=N)N)NC(=O)[C@H](CCCCN)NC(=O)[C@H](Cc1ccccc1)NC(=O)CN)[C@@H](C)CC)C(C)C)C(=O)N[C@@H](CCCCN)C(=O)N[C@@H](CC(=O)O)C(=O)N[C@@H](Cc1ccccc1)C(=O)N[C@@H](CC(C)C)C(=O)N[C@@H](CCCNC(=N)N)C(=O)N[C@@H](CC(N)=O)C(=O)N[C@@H](CC(C)C)C(=O)N[C@H](C(N)=O)C(C)C [GFKRIVQRIKDFLRNLV]

MIC [19]: 28.2 µM (≈ 32 µg/mL) | MIC [20]: ≥ 56.5 µM | MIC [21]: 14.1 µM (≈ 16 µg/mL) | MIC [22]: ≥ 226 µM | MIC [23]: ≥ 226 µM | MIC [24]: 14.1 µM (≈ 16 µg/mL) | MIC [25]: 0.882 µM (≈ 1 µg/mL) | MIC [26]: ≥ 56.5 µM | MIC [27]: 28.2 µM (≈ 32 µg/mL) | MIC [28]: 0.624 µM (≈ 0.707 µg/mL) | MIC [29]: 7.06 µM (≈ 8 µg/mL) | MIC [30]: 14.1 µM (≈ 16 µg/mL) | MIC [31]: 7.06 µM (≈ 8 µg/mL) | MIC [32]: ≥ 56.5 µM | MIC [33]: 28.2 µM (≈ 32 µg/mL) | MIC [34]: 28.2 µM (≈ 32 µg/mL) | MIC [35]: 0.882 µM (≈ 1 µg/mL) | MIC [36]: 28.2 µM (≈ 32 µg/mL) | MIC [37]: ≥ 226 µM | MIC [39]: 14.1 µM (≈ 16 µg/mL) | MIC [40]: ≥ 56.5 µM
SMILES: CC[C@H](C)[C@H](NC(=O)[C@@H](NC(=O)[C@H](CO)NC(=O)[C@H](Cc1ccccc1)NC(=O)[C@H](CC(C)C)NC(=O)[C@H](CCCN=C(N)N)NC(=O)[C@@H](NC(=O)[C@H](CC(C)C)NC(=O)CN)[C@@H](C)O)C(C)C)C(=O)N[C@@H](CCCCN)C(=O)O [GLTRLFSVIK]
MIC [38]: ≥ 226 µM

MIC [41]: 82.8 µM (≈ 128 µg/mL) | MIC [42]: ≥ 82.8 µM | MIC [43]: ≥ 82.8 µM | MIC [44]: ≥ 82.8 µM | MIC [45]: ≥ 82.8 µM | MIC [46]: 82.8 µM (≈ 128 µg/mL) | MIC [47]: > 331 µM | MIC [48]: > 82.8 µM | MIC [49]: ≥ 82.8 µM | MIC [50]: ≥ 82.8 µM | MIC [51]: ≥ 82.8 µM | MIC [52]: ≥ 82.8 µM | MIC [53]: > 82.8 µM
SMILES: C[C@H](NC(=O)[C@H](CCCN=C(N)N)NC(=O)[C@H](Cc1ccc(O)cc1)NC(=O)[C@H](Cc1cnc[nH]1)NC(=O)[C@H](Cc1c[nH]c2ccccc12)NC(=O)[C@H](CCCN=C(N)N)NC(=O)[C@H](Cc1c[nH]c2ccccc12)NC(=O)[C@H](C)NC(=O)[C@@H](NC(=O)CN)[C@@H](C)O)C(=O)N[C@@H](CCCN=C(N)N)C(=O)N[C@@H](CO)C(=O)O [GTAWRWHYRARS]

MIC [54]: 4.46 µM (≈ 12.4 µg/mL) | MIC [55]: 3.82 µM (≈ 10.7 µg/mL) | MIC [56]: ≥ 35.7 µM | MIC [57]: 17.8 µM (≈ 49.8 µg/mL)
SMILES: CC(C)C[C@H](NC(=O)[C@H](CCCN=C(N)N)NC(=O)[C@H](Cc1ccccc1)NC(=O)[C@H](Cc1ccccc1)NC(=O)[C@@H](N)[C@@H](C)O)C(=O)N[C@@H](Cc1ccccc1)C(=O)N[C@@H](CC(N)=O)C(=O)N[C@@H](CCCN=C(N)N)C(=O)N[C@@H](CO)C(=O)N[C@@H](Cc1ccccc1)C(=O)N[C@H](C(=O)NCC(=O)N[C@@H](CCCN=C(N)N)C(=O)N[C@@H](CCCN=C(N)N)C(=O)N[C@@H](CCCN=C(N)N)C(=O)N[C@@H](CCCN=C(N)N)C(=O)N[C@@H](CO)C(=O)N[C@H](C(=O)N[C@@H](CCC(N)=O)C(=O)N[C@@H](Cc1c[nH]c2ccccc12)C(=O)N[C@@H](CS)C(=O)N[C@@H](C)C(=O)O)C(C)C)[C@@H](C)O [TFFRLFNRSFTGRRRRSVQWCA]
